The series has as its system CYP3A4. The conditions noted are these: human, hepatocytes, 48 h. The procedure: Evaluation of Drug Metabolizing Enzyme (CYP3A4) Inducibility Using Cryopreserved Human Hepatocyte
Cryopreserved hepatocytes (In Vitro Technology) were rapidly thawed while stirring at 37° C., and then ice-cooled William's Medium E (10% FBS, +PSG) was slowly added to the cells prior to centrifugation at 500 rpm for 5 minutes. After removing the supernatant, the obtained hepatocytes were diluted with ice-cooled William's Medium E to a concentration of 5×10^5 cells/mL, seeded on a 48-well collagen coated plate (BD Biosciences) at 1×10^5 cells/cm^2 and incubated for about 24 hours at 37° C., 5% CO2, after which the medium was changed with Hepato-STIM™ (BD Biosciences) (+EGF, PSG, −FBS) and culture was maintained for another 24 hours under conditions of 37° C., 5% CO2. At approximately 48 hours after the cell seeding, the test compound or rifampicin (SIGMA, positive control) in the form of a diluted solution (using Hepato-STIM™ (+EGF, PSG, −FBS)) was added, hepatocyte were incubated for about 24 hours under conditions of 37° C., 5% CO2, and the culture medium was changed with medium containing a freshly prepared dilution of the test compound or rifampicin prior to further incubation for 24 hours under the same conditions. After incubation, the cells were washed once with PBS, and the total RNA was extracted using a Qiagen RNeasy Mini kit (Qiagen). The cDNA was synthesized by reverse-transcription of extracted using TaqMan Reverse Transcription Reagents (Applied Biosystems). The reverse transcription reaction was carried out using oligo dT as primer, with treatment at 25° C. for 10 minutes followed by treatment at 48° C. for 60 minutes, after which the reverse transcriptase was inactivated by treatment at 95° C. for 10 minutes. The obtained cDNA was supplied to a PCR using a Gene Amp PCR system 9700. The obtained cDNA was quantitated using an SYBR Green PCR Core Reagents kit (Applied Biosystems), and the human CYP3A4 and GAPDH mRNA was quantitated using an ABI7700 (Applied Biosystems). The abbreviations used in the test example are explained below. • FBS: Fetal Bovine Serum • PSG: Penicillin (100 U/ml), Streptomycin (100 μg/ml), Glutamine (2 mM) • EGF: Epidermal Growth Factor • GAPDH: Glyceraldehyde-3-Phosphate Dehydrogenase
(2) Calculation of CYP3A4 Inducibility
Next, for comparison of each test run, the differences between the value of the CYP3A4 mRNA amount divided by the GAPDH mRNA amount with addition of the test compound at various concentrations and with addition of the negative control were calculated as percentages, with 100% being defined as the difference between the values of the CYP3A4 mRNA amount divided by the GAPDH mRNA amount for the positive control and negative control, to determine the inducibility of each test compound.

Where two headings read alike, the source gives them in different places. A value given as a limit tells only on which side of the number the result lay.

Regarding `CCc1nn2c(-c3c(OC)cc(COC)cc3OC)cccc2c1N(CC1CCOCC1)CC1CC1` [Example 1, N-Cyclopropylmethyl-N-7-[2,6-dimethoxy-4-(methoxymethyl)phenyl]-2-ethylpyrazolo[1,5-a]pyridin-3-yl-N-tetrahydro-2H-4-pyranylmethylamine], the “CYP3A4 inducibility, % of Positive Control” value (“CYP3A4 inducibility, %” below) was found to be 6% (0.03 μM); 7% (0.1 μM); 12% (0.3 μM); 20% (1 μM); 36% (3 μM); 65% (10 μM). Under “1 μM”, the “CYP3A4 inducibility” value is on record as not above 40%.

As for `CCOCc1cc(OC)c(-c2cccc3c(N(CC4CCOCC4)CC4CC4)c(CC)nn23)c(OC)c1` [Example 3, N-Cyclopropylmethyl-N-7-[4-(ethoxymethyl)-2,6-dimethoxyphenyl]-2-ethylpyrazolo[1,5-a]pyridin-3-yl-N-tetrahydro-2H-4-pyranylmethylamine], the “CYP3A4 inducibility, %” value (0.03 μM) was determined as 3%; the “CYP3A4 inducibility, %” value (0.1 μM) is listed as 3%; the “CYP3A4 inducibility, %” value (0.3 μM) was 7%; the “CYP3A4 inducibility, %” value (1 μM) is 25%; the “CYP3A4 inducibility, %” value (3 μM) was 23%; the “CYP3A4 inducibility, %” value (10 μM) came to 34%. For the same compound, the “CYP3A4 inducibility” value (1 μM) was not above 40%.

For `COCc1cc(OC)c(-c2cccc3c(N(CC4CCOCC4)CC4CC4)c(SC)nn23)c(OC)c1` [Example 59, N-Cyclopropylmethyl-N-[7-[2,6-dimethoxy-4-(methoxymethyl)phenyl]-2-(methylsulfanyl)pyrazolo[1,5-a]pyridin-3-yl]-N-tetrahydro-2H-4-pyranylmethylamine], the “CYP3A4 inducibility, %” value is given as 2% (0.03 μM); 3% (0.1 μM); 11% (0.3 μM); 25% (1 μM); 49% (3 μM); 59% (10 μM). In addition, the “CYP3A4 inducibility” value (1 μM) is reported as not above 40%.

The values above are taken from patent publication US7323569B2, “7-phenylpyrazolopyridine compounds” (Eisai R&D Management Co., Ltd., priority 2002, dated 2008).
